Results: patent US20040242459A1 (priority 2001, published 2004)
“And” between values parts separate entries of the source, which are not always exact repeats. Equal values may be shown once.

What was measured:
[1] = target: T1, recombinant human PPARδ (GST-PPARδ) (Homo sapiens, UniProt Q03181); assay: Scintillation Proximity Assay, displacement of [3H2]Compound B from PPARδ; format: binding; details: human PPARδ binding; read-out: IC50 (μM: SPA or BND) Delta
T1 construct: The full length human cDNAs for PPARδ and PPARα were subcloned into the pGEX-KT expression vector; made in house; host or cells: E. coli
T1 sequence (Q03181 1-441): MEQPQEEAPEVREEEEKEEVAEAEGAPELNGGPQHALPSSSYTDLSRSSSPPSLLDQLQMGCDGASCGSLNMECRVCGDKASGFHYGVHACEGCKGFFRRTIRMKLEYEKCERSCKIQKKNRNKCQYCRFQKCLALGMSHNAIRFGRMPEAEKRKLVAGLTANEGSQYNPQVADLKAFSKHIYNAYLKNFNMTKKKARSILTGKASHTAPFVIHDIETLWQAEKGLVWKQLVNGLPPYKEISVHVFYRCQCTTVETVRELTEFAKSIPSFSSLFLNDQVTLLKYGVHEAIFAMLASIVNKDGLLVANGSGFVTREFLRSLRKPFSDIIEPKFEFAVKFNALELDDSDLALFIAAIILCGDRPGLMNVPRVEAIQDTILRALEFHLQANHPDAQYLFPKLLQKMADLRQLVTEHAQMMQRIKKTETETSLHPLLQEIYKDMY
Description: (§1) As an approach to identifying human PPAR agonists, a Scintillation Proximity Assay was used to characterize PPAR-γ, PPAR-δ, and PPAR-α ligands.
(§2) Human PPARγ2, human PPARδ and human PPARα were expressed as GST-fusion proteins in E. coli. The full length human cDNA for PPARγ 2 was subcloned into the pGEX-2 T expression vector (Amersham Pharmacia Biotech, Inc.). The full length human cDNAs for PPARδ and PPARα were subcloned into the pGEX-KT expression vector (Amersham Pharmacia Biotech, Inc.). E. coli containing the respective plasmids were propagated, induced, and harvested by centrifugation. The resuspended pellet was broken in a French press and debris removed by centrifugation. Recombinant human PPAR receptors were purified by affinity chromatography on glutathione sepharose. After application to the column, and one wash, receptor was eluted with glutathione. Glycerol (10%) was added to stabilize the receptor and aliquots were stored at −80° C.
(§3) After incubation for ˜16 h at 15° C. with shaking, the assay plates were counted in a Packard Topcount with quench correction.

[2] = target: T2, recombinant human PPARγ (GST-PPARγ) (Homo sapiens, UniProt P37231); assay: Scintillation Proximity Assay, displacement of [3H2]Compound A from PPARγ; format: binding; details: human PPARγ binding; read-out: IC50 (μM: SPA or BND) Gamma
T2 construct: The full length human cDNA for PPARγ 2 was subcloned into the pGEX-2 T expression vector; made in house; host or cells: E. coli
T2 sequence (P37231 1-505): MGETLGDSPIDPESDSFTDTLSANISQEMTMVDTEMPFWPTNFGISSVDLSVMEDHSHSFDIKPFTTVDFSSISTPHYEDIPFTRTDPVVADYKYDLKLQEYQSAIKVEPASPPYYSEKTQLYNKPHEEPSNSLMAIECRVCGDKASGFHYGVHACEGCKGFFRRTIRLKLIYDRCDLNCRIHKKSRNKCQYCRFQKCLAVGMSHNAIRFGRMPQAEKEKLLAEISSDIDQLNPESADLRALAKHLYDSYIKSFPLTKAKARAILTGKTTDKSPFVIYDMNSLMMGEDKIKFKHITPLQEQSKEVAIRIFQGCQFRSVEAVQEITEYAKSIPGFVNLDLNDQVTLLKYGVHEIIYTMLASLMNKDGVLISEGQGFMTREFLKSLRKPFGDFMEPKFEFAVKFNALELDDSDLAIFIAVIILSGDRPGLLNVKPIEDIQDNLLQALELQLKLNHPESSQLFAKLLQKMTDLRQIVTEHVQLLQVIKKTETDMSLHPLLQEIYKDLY
Description: as §1, §2, §3

hPPARα/GAL4 = target: T3, hPPARα/GAL4 (Homo sapiens, UniProt Q07869); assay: Gal-4 hPPAR transactivation assay in COS-1 cells (alpha); format: cell-based; details: two values separated by a slash in some cells
T3 construct: expressed in transfected cells; host or cells: COS-1 cells
T3 sequence (Q07869 239-466 limits assumed): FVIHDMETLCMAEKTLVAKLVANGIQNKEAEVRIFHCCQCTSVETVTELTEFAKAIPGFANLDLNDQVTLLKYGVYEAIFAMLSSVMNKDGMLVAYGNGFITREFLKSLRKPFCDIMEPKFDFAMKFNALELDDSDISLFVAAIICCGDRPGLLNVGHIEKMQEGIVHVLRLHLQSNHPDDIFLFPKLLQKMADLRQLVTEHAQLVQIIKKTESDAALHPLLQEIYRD
T3 sequence (P04386 1-147 partner limits assumed): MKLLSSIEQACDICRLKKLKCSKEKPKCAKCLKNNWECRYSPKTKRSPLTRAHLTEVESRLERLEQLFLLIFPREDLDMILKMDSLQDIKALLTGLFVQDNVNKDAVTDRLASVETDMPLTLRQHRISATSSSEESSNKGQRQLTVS
Method: (§4) The chimeric receptor expression constructs, pcDNA3-hPPARγ/GAL4, pcDNA3-hPPARδ/GAL4, pcDNA3-hPPARα/GAL4 were prepared by inserting the yeast GAL4 transcription factor DBD adjacent to the ligand binding domains (LBDs) of hPPARγ, hPPARδ, hPPARα, respectively. The reporter construct, pUAS(5×)-tk-luc was generated by inserting 5 copies of the GAL4 response element upstream of the herpes virus minimal thymidine kinase promoter and the luciferase reporter gene. pCMV-lacZ contains the galactosidase Z gene under the regulation of the cytomegalovirus promoter. COS-1 cells were seeded at 12×10^3 cells/well in 96 well cell culture plates in high glucose Dulbecco's modified Eagle medium (DMEM) containing 10% charcoal stripped fetal calf serum (Gemini Bio-Products, Calabasas, Calif.), nonessential amino acids, 100 units/ml Penicillin G and […] Streptomycin sulfate at 37° C. in a humidified atmosphere of 10% CO2. After 24 h, transfections were performed with Lipofectamine (GIBCO BRL, Gaithersburg, Md.) according to the instructions of the manufacturer. […] Luciferase activity in cell extracts was determined using Luciferase Assay Buffer (Promega, Madison, Wis.) in an ML3000 luminometer (Dynatech Laboratories, Chantilly, Va.). β-galactosidase activity was determined using β-D-galactopyranoside (Calbiochem, San Diego, Calif.).

hPPARδ/GAL4 = target: T4, hPPARδ/GAL4 (Homo sapiens, UniProt Q03181); assay: Gal-4 hPPAR transactivation assay in COS-1 cells (delta); format: cell-based; details: two values separated by a slash in some cells
T4 construct: expressed in transfected cells; host or cells: COS-1 cells
T4 sequence (P04386 1-147 partner limits assumed, one chain of several): as the sequence (P04386 1-147 partner limits assumed) above
Method: as §4

[3] = system: PPAR-α, PPAR-γ and PPAR-δ; assay: Classification of ligands according to their PPAR activity (Table A); design: species or system human; details: classification based on IC50 and EC50 data of Table B

IC50 [1]: 15 µM
IC50 [2]: 0.097 µM
EC50 (hPPARα/GAL4): 1.05 µM and 1.2 µM
EC50 (hPPARδ/GAL4): 3 µM
Compound: CCCc1cc(Oc2ccccc2)ccc1OCCc1cc2cc(CC(=O)O)ccc2[nH]1 [Compound 2, {2-[2-(4-phenoxy-2-propylphenoxy)ethyl]-1H-indol-5-yl}acetic acid]
PPAR Activity [3]: Gamma Agonist
